# Data taken from US20200087340A1, “LIF/LIFR ANTAGONIST IN ONCOLOGY AND NONMALIGNANT DISEASES” (Evestra, Inc., priority 2018, published 2020).
# “Also recorded” adds a separate entry of the source.
# Columns and labels:
# [1] = system: various cancer cells lines; experiment: Cytotoxicity assays in various cancer cell lines; type: cell-based
# Mug-Chor cells = experiment: 48 hours MTT cell proliferation assay, chordoma; type: cell-based
# Protocol: (§1) EC359 was tested two chormoma cell lines (Mug-Chor and U-CH1) for cell viability in 48 hours MTT cell proliferation assay.
# U-CH1 = experiment: 48 hours MTT cell proliferation assay, chordoma; type: cell-based; conditions: UCH1; U-CH1, 48 hours MTT
# Protocol: as §1
# [2] = system: High trans-fat fructose diet induced liver fibrosis; experiment: High fat diet (HFD) induced liver fibrosis in rats; type: in vivo, rat
# cancer cells = experiment: Colony formation in soft agar (EC359); type: cell-based
# [3] = system: triple negative breast cancer (TNBC) stem cells; experiment: TNBC stem cell inhibition; type: cell-based
# [4] = system: cancer-associated fibroblasts (CAFs), alpha-SMA; experiment: Cytoskeletal disruption / cancer-associated fibroblasts; type: cell-based
# TNBC xenograft = TNBC xenograft (EC359); type: in vivo; conditions: 1 and 5 mg/kg
# Excerpt: (§2) . Blockade of LIF-LIFR interaction reduced the STAT3 phosphorylation, mTOR and further downstream signaling cascades. […]. Our findings establish EC359 as a novel LIF/LIFR targeting drug with therapeutic perspectives for patients with advanced primary tumors. LIF/LIFR targeting may result in the blockade of JAK-STAT signaling pathway as well as cancer fibroblast associated pro invasive tumor microenvironment in regular as well as therapy resistant tumors
# MM51 = experiment: Murine syngeneic MM51 model; type: in vivo; conditions: 1 and 5 mg/kg
# Excerpt: as §2
# [5] = system: FC 1295 and imPSCc-2 organoids; experiment: Pancreatic cancer / stellate cell line derived organoid system; type: cell-based, Murine
# Protocol: Most solid tumors have extensive stroma that not only facilitates the tumor progression but also impedes the delivery of the chemotherapeutic agents. Due to lack of any in-vitro system, presently it is difficult to evaluate any stroma-targeted therapies. Therefore, we developed an organoid system using labeled pancreatic cancer and stellate cell lines. Murine (FC 1295 and […]-2) cell lines cultured in different combinations were grown as an organoid system using matrigel. The organoids, starting day four were treated with either gemcitabine or EC359, a novel mifepristone derived steroidal cytotoxic agent that targets tumor stroma, or both in combination. qRT-PCR analysis of activated stroma signature genes was performed on the mRNA isolated from different treatment groups. H&E, immunohistochemistry, and western blot analysis were performed to further validate our findings. […] Our novel cell line derived organoid model can be utilized for fast, and inexpensive evaluation of stroma-targeted therapies.
# [6] = system: breast and ovarian cancer cells; experiment: Combination with HDAC inhibitor, colony formation; type: cell-based
# Excerpt: Therapy resistance is a major hurdle in cancer chemo/targeted therapy. The role of LIF/LIFR signaling in inducing stemness and hypoxia is well established in different cancers. […] FIG. 16A depicts colony formation of cancer cells under various conditions. […] FIG. 16B depicts the effect of EC359 alone and in combination with SAHA on STAT 3 phosphorylation. FIG. 16C depicts the effect of EC359 alone and in combination with SAHA on induced apoptosis. FIGS. 17A and 17B depicts the effect of EC359 alone and in combination with SAHA on the growth of TNBC patient derived tumors. […] The combination of EC359 and SAHA provided a greater reduction than either […] alone.
# [7] = system: S. typhimurium TA98, TA100, TA1535 and E. coli WP2 uvrA + E. coli WP2[pKM101] strains; experiment: Mutagenicity testing
# hERG membrane = hERG membrane (Homo sapiens, UniProt Q12809); experiment: Cardiotoxicity assessment (hERG), fluorescence polarization assay; type: binding
# [8] = system: Cytochrome P450 (1A2, 2C9, 2C19, 2D6, 3A4); experiment: CYP inhibition using human liver microsomes; type: in vitro ADME; conditions: human liver microsomes (1A2, 2C9, 2C19, 2D6, 3A4)
# Hepatocyte stability [9] = type: in vitro ADME; conditions: Human
# Hepatocyte stability [10] = type: in vitro ADME; conditions: Mouse
# Hepatocyte stability [11] = type: in vitro ADME; conditions: Rat
# Hepatocyte stability [12] = type: in vitro ADME; conditions: Dog
# Microsomal stability [13] = type: in vitro ADME; conditions: Human
# Microsomal stability [14] = type: in vitro ADME; conditions: Mouse
# Microsomal stability [15] = type: in vitro ADME; conditions: Rat
# Microsomal stability [16] = type: in vitro ADME; conditions: Dog
# Single dose MTD = type: in vivo; conditions: 10, 25, 50 and 100 mg/kg
# PK study in Mouse = type: in vivo
# Plasma protein binding [17] = type: in vitro ADME; conditions: human
# Plasma protein binding [18] = type: in vitro ADME; conditions: mouse
# Plasma protein binding [19] = type: in vitro ADME; conditions: rat
# Plasma protein binding [20] = type: in vitro ADME; conditions: dog
# Plasma stability [21] = type: in vitro ADME; conditions: Human
# Plasma stability [22] = type: in vitro ADME; conditions: Mouse
# Plasma stability [23] = type: in vitro ADME; conditions: Rat
# Plasma stability [24] = type: in vitro ADME; conditions: Dog
# [25] = Solubility: pION, kinetic, thermodynamic; type: physicochemical
# [26] = Metabolite identification; type: in vitro ADME
# Caco2 = experiment: Caco2-permeability & efflux transporter substrate activity; type: in vitro ADME
# GR = molecular target: T1, GR (Homo sapiens, UniProt P04150); experiment: Off-target binding study (CEREP screen); conditions: no binding up to, read-out: IC 50 of binding, GR
# T1 construct: CEREP (contract screen, per earlier reading)
# hERG = molecular target: T2, hERG (Homo sapiens, UniProt Q12809); experiment: Off-target binding study (CEREP screen); conditions: no binding up to, read-out: IC 50 of binding, hERG
# T2 construct: CEREP (contract screen, per earlier reading)
# LIF = LIF (Homo sapiens, UniProt P15018); experiment: biochemical
# [27] = system: ID-8 ovarian syngeneic tumor; experiment: ID-8 ovarian syngeneic murine tumor model
# Excerpt: CD3+T cells: T cell co-receptor helps to activate both the cytotoxic T cell (CD8+ naive T cells) and also T helper cells (CD4+ naive T cells). • 2. Tumor infiltrating leukocytes • 3. CD19 is widely expressed during all phases of B cell development until terminal differentiation into plasma cells. • 4. […] M1 macrophages: produced along with inflammatory reaction. […] CD8-positive T cells: are a critical subpopulation of MEW class I-restricted T cell and are mediators of adaptive immunity.
# T2 sequence (Q12809 whole entry): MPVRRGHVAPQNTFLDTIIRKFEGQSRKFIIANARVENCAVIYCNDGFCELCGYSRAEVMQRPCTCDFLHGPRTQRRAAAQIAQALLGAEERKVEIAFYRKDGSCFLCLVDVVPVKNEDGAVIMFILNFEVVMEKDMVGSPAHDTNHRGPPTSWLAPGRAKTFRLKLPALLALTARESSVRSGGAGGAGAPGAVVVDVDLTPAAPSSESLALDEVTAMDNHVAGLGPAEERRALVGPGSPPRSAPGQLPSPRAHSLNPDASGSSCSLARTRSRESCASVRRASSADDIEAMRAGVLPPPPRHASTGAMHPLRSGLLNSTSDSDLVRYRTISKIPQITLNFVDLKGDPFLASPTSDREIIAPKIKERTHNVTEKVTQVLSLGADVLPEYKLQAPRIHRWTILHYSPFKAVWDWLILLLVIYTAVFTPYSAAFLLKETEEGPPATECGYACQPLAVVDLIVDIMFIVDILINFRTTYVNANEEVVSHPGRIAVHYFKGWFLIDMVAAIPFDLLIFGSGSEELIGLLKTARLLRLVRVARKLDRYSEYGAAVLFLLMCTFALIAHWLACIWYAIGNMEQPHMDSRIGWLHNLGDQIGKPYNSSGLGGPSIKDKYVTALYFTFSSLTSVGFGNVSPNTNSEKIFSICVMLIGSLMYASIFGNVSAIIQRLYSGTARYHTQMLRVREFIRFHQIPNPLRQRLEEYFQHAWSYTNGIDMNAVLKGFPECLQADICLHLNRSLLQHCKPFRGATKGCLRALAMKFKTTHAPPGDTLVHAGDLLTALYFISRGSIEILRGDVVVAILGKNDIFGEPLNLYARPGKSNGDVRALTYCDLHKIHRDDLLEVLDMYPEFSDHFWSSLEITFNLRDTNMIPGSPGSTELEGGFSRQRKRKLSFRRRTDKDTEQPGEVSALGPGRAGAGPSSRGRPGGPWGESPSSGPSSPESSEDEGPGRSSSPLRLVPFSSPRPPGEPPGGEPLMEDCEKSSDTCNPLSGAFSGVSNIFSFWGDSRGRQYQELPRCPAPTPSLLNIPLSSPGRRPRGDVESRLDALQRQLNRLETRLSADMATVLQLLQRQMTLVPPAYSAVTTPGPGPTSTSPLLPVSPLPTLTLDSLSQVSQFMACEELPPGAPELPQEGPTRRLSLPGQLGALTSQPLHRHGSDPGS
# Chain of hERG membrane (Q12809 whole entry): as above
# T1 sequence (P04150 whole entry): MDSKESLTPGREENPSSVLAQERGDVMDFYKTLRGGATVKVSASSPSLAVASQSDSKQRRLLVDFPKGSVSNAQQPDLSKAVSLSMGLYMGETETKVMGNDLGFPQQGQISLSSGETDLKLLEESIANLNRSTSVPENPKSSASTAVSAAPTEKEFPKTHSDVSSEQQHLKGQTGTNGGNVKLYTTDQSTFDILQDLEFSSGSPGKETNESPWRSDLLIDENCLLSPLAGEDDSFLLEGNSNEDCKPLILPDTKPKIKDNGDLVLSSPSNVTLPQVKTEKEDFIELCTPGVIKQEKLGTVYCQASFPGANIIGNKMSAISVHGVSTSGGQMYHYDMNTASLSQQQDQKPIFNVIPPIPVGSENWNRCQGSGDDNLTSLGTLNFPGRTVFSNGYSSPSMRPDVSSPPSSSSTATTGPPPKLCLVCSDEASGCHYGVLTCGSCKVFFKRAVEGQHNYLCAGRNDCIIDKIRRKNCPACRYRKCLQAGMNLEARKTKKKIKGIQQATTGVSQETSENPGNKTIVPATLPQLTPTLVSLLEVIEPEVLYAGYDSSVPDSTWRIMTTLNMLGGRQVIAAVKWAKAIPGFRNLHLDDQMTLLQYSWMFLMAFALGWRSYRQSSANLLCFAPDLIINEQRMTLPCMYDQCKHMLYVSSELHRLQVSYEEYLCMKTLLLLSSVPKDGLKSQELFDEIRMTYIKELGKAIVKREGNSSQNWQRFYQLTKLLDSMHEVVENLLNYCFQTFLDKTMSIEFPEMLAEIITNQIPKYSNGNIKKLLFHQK
# Chain of LIF (P15018 23-202): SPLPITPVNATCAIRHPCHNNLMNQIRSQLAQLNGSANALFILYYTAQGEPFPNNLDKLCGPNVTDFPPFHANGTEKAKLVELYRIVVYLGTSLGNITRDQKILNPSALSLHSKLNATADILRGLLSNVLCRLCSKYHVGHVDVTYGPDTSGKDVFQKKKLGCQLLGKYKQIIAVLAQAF
compound,measurement,setting,value
"C#CC(F)(F)[C@]1(O)CC[C@H]2[C@@H]3CCC4=CC(=O)CCC4=C3[C@@H](c3ccc(-c4c(C)cc(C)cc4C)cc3)C[C@@]21C [EC359, 17α-(1,1-difluoro-2-propyn-1-yl)-17β-hydroxy-11β-[4-p-(2,4,6-trimethylphenyl)phenyl]estra-4,9-dien-3-one]",cytotoxicity (IC50's) in cytotoxicity assays,[1],low nano-molar range
same,IC50,Mug-Chor cells,85 nM
same,IC50,U-CH1,140 nM
same,liver damage (HFD induced steatohepatisis),"[2]; after 4 months of HFD, rats",significantly reduced
same,"fibrosis, Picrosirius red staining of liver tissue",[2]; intermediary and higher dose,Fibrosis was evident
same,efficacy in rat models of liver fibrosis,[2]; rat models of liver fibrosis,showed efficacy
same,"fibrosis, Picrosirius red staining of liver tissue",[2]; rats,minimal fibrosis
same,formation of colonies in soft agar,cancer cells,blocked formation of colonies
same,TNBC stem cells,[3],inhibited
same,"cytoskeletal disruption, targeting CAFs",[4],inhibition of alpha-SMA but not beta-tubulin
same,tumor burden,TNBC xenograft,dose dependently reduced tumor burden
same,tumor burden,MM51,dose dependently reduced tumor burden
same,expression of markers of activated stroma (western blot),[5],"reduced the expression of markers of activated stroma including alpha-SMA, and vimentin"
same,relative reduction in GFP fluorescence,[5]; as compared to control,46%
same,combination with HDAC inhibitor,[6],works synergistically
same,Mutagenicity testing,[7],No mutagenicity
same,Cardiotoxicity assessment (hERG),hERG membrane,No liability
same,CYP inhibition,[8],2D6 inhibition
same,Hepatocyte stability,Hepatocyte stability [9],Human & Mouse-moderate
same,Hepatocyte stability,Hepatocyte stability [10],Human & Mouse-moderate
same,Hepatocyte stability,Hepatocyte stability [11],Rat & Dog-low
same,Hepatocyte stability,Hepatocyte stability [12],Rat & Dog-low
same,Microsomal stability,Microsomal stability [13],Human & Mouse-moderate
same,Microsomal stability,Microsomal stability [14],Human & Mouse-moderate
same,Microsomal stability,Microsomal stability [15],Rat & Dog-low
same,Microsomal stability,Microsomal stability [16],Rat & Dog-low
same,Single dose MTD,Single dose MTD,No toxicity observed
same,oral bioavailability,PK study in Mouse; Mouse,Orally bioavailable
same,Mouse PK (p.o),PK study in Mouse; p.o,1.0 h
same,fraction unbound,Plasma protein binding [17],0.0002
same,fraction unbound,Plasma protein binding [18],0.0037
same,fraction unbound,Plasma protein binding [19],0.0011
same,fraction unbound,Plasma protein binding [20],0.0017
same,Plasma stability (% remaining at 60 min),Plasma stability [21],113.92%
same,Plasma stability (% remaining at 60 min),Plasma stability [22],104.91%
same,Plasma stability (% remaining at 60 min),Plasma stability [23],108.64%
same,Plasma stability (% remaining at 60 min),Plasma stability [24],105.61%
same,solubility,[25],< 10 µg/mL
same,Major metabolic pathway,[26],Major metabolic pathway-Phase I
same,glucuronide metabolites,[26]; low CL in UDPGA,metabolism; No glucuronide
same,Caco2-permeability,Caco2,Low permeable
same,efflux transporter substrate activity,Caco2,No efflux transporter
same,IC50,GR,> 10000 nM
same,IC50,hERG,> 30000 nM
same,Kd,LIF,> 5000 nM
same,Rat PK (iv),PK study in Rat; iv,6 h
same,oral bioavailability,PK study in Rat; rat,high oral bioavailability; also recorded: Orally bioavailable
same,half-life,PK study in Rat; rats,long half-life
same,tumor specific infiltration of lymphocytes and macrophages,[27]; ID-8 Ovarian cancer model,enhanced
same,M1 macrophages,[27]; ID-8 model,increased
same,"tumor specific accumulation of CD3+T, CD4+T and CD8+T cells",[27]; ID-8 model,increased
same,tumor burden,[27]; ID-8 ovarian syngeneic murine tumor model,significantly reduced
same,combination with PD-L1 treatment,[27]; ovarian cancer ID-8 syngeneic mice model,synergizes PD-L1 treatment
